# Test results from US20100029657A1, “Bridged, Bicyclic Heterocyclic or Spiro Bicyclic Heterocyclic Derivatives of Pyrazolo[1, 5-A]Pyrimidines, Methods for Preparation and Uses Thereof” (Wyeth, priority 2008, published 2010).
# Molecular target: T1, Flag/GST-tagged recombinant human B-Raf (Homo sapiens, UniProt P15056)
# T1 construct: Flag; GST; made in house; host or cells: Sf9 insect cells (B-Raf); E. coli (MEK1-GST)
# Assay: B-Raf kinase assay (phosphorylation of GST-MEK1, phospho-MEK1 antibody/Europium detection)
# Assay type: biochemical
# Settings: B-Raf IC50 Data for compounds of Formula A; read-out: Mean IC50
# Protocol: B-Raf1 Kinase Assay Procedure: B-Raf-1 is used to phosphorylate GST-MEK1.
# • 1. Assay Dilution Buffer (ADB): 20 mM MOPS, pH 7.2, 25 mM β-glycerol phosphate, 5 mM EGTA, 1 mM sodium orthovanadate, 1 mM dithiothreitol, 0.01% Triton X-100. • 2. Magnesium/ATP Cocktail: ADB solution (minus Triton X-100) plus 200 μM cold ATP and 40 mM magnesium chloride. • 4. Active Kinase: Active B-Raf: Used at 0.2 nM per assay point. • 5. […] TBST—Tris (50 mM, pH 7.5), NaCl (150 mM), Tween-20 (0.05%) • 7. Anti-GST Ab (GE) • 8. Anti pMEK Ab (Upstate) • 9. Anti-rabbit Ab/Europium conjugate (Wallac).
# B-Raf Assay Procedure: • 1. Added 25 μL of ADB containing B-Raf and Mek per assay (i.e. per well of a 96 well plate) • 2. Added 25 μL of 0.2 mM ATP and 40 mM magnesium chloride in Magnesuium/ATP Cocktail. • 3. Incubated for 45 minutes at RT with occasional shaking. • 4. Transferred this mixture to an anti-GST Ab coated 96 well plate (Nunc Immunosorb plates coated o/n with a-GST. Plate freshly washed 3×with TBS-T before use. • 5. Incubated o/n at […] in cold room. • 6. Washed 3× with TBST, ed Anti-Phospho MEK1 (1:1000, dilution depended upon lot) • 7. Incubated for 60 minutes at RT in a shaking incubator • 8. Washed 3× with TBST, add Anti-rabbit Ab/Europium conjugate (Wallac) (1:500, dilution depended upon lot) • 9. Incubated for 60 minutes at RT on a platform shaker. • 10. Washed plate 3× with TBS-T • 11. Added 100 μL of Wallac Delfia Enhancement Solution and agitated for 10 minutes. • 12. Read plates in Wallac Victor model Plate Reader. • 13.
# The % inhibition was determined for each compound concentration.
# T1 sequence (P15056 whole entry): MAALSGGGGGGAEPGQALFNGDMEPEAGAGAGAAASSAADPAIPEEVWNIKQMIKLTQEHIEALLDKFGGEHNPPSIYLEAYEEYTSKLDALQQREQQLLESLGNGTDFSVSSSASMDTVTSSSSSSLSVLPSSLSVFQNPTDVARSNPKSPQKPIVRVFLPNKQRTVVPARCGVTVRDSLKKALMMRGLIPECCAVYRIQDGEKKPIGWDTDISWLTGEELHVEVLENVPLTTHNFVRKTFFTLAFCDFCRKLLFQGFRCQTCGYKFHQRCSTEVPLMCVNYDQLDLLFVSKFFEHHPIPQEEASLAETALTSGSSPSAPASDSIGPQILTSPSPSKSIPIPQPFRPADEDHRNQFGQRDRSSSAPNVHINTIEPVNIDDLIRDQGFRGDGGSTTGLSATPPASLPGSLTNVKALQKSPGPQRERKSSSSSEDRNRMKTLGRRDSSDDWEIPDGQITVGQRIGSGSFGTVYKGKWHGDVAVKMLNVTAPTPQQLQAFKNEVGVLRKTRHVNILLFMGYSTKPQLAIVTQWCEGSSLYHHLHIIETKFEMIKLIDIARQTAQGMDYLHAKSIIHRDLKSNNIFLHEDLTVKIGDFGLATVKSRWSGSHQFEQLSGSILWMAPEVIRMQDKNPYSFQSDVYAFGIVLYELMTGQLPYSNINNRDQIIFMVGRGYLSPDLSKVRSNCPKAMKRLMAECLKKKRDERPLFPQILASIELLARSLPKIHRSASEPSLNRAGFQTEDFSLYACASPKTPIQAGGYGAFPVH
row,SMILES,IC50 [µM]
1,"CCN1C2CCC1CC(c1ccnc3c(-c4ccc(Cl)c(OC)c4)c(-c4ccncc4)nn13)C2 (centres unmarked) [Example 17, 3-(4-Chloro-3-methoxyphenyl)-7-(8-ethyl-8-azabicyclo[3.2.1]oct-3-yl)-2-pyridin-4-ylpyrazolo[1,5-a]pyrimidine]",0.044
2,"COc1cccc(-c2c(-c3ccncc3)nn3c(C4CC5CCC(C4)N5)ccnc23)c1 (centres unmarked) [Example 19, 7-(8-Azabicyclo[3.2.1]oct-3-yl)-3-(3-methoxyphenyl)-2-pyridin-4-ylpyrazolo[1,5-a]pyrimidine]",0.071
3,"CCN1C2CCC1CC(c1ccnc3c(-c4ccnc(OC)c4)c(-c4ccncc4)nn13)C2 (centres unmarked) [Example 20, 7-(8-Ethyl-8-azabicyclo[3.2.1]octan-3-yl)-3-(2-methoxypyridin-4-yl)-2-(pyridin-4-yl)pyrazolo[1,5-a]pyrimidine]",0.835
4,"CCN1C2CCC1CC(c1ccnc3c(-c4ccnc(O)c4)c(-c4ccncc4)nn13)C2 (centres unmarked) [Example 21, 4-(7-(8-Ethyl-8-azabicyclo[3.2.1]octan-3-yl)-2-(pyridin-4-yl)pyrazolo[1,5-a]pyrimidin-3-yl)pyridin-2-ol]",> 1
5,"CCN1C2CCC1CC(c1ccnc3c(-c4ccc(N)cc4)c(-c4ccncc4)nn13)C2 (centres unmarked) [Example 22, 4-(7-(8-Ethyl-8-azabicyclo[3.2.1]octan-3-yl)-2-(pyridin-4-yl)pyrazolo[1,5-a]pyrimidin-3-yl)aniline]",> 1
6,"CCN1C2CCC1CC(c1ccnc3c(-c4ccc(NC(N)=O)cc4)c(-c4ccncc4)nn13)C2 (centres unmarked) [Example 23, 1-(4-(7-(8-Ethyl-8-azabicyclo[3.2.1]octan-3-yl)-2-(pyridin-4-yl)pyrazolo[1,5-a]pyrimidin-3-yl)phenyl)urea]",> 1
7,"COc1cccc(-c2c(-c3ccncc3)nn3c(-c4ccc(N5C[C@@H]6C[C@H]5CN6)cc4)ccnc23)c1 [Example 28, 7-[4-((1S,4S)-2,5-Diaza-bicyclo[2.2.1]hept-2-yl)-phenyl]-3-(3-methoxy-phenyl)-2-pyridin-4-yl-pyrazolo[1,5-a]pyrimidine]",0.016
8,"COc1cc(-c2c(-c3ccncc3)nn3c(-c4ccc(N5C[C@@H]6C[C@H]5CN6C)cc4)ccnc23)ccc1F [Example 37, 3-(4-Fluoro-3-methoxyphenyl)-7-(4-((1S,4S)-5-methyl-2,5-diazabicyclo[2.2.1]heptan-2-yl)phenyl)-2-(pyridin-4-yl)pyrazolo[1,5-a]pyrimidine]",0.021
9,"CN1C[C@@H]2C[C@H]1CN2c1ccc(-c2ccnc3c(-c4cccc(C(N)=O)c4)c(-c4ccncc4)nn23)cn1 [Example 43, 3-(7-(6-((1S,4S)-5-Methyl-2,5-diazabicyclo[2.2.1]heptan-2-yl)pyridin-3-yl)-2-(pyridin-4-yl)pyrazolo[1,5-a]pyrimidin-3-yl)benzamide]",0.134

# Continued, values first:
row,IC50 [µM],SMILES
1,0.0006,"CCN1C2CCC1CC(c1ccnc3c(-c4ccc(Cl)c(O)c4)c(-c4ccncc4)nn13)C2 (centres unmarked) [Example 18, 2-Chloro-5-[7-(8-ethyl-8-azabicyclo[3.2.1]oct-3-yl)-2-pyridin-4-ylpyrazolo[1,5-a]pyrimidin-3-yl]phenol]"
2,0.001,"CN1C2CCC1CN(c1ccc(-c3ccnc4c(-c5cccc(O)c5)c(-c5ccncc5)nn34)cc1)C2 [Example 25, 3-{7-[4-(8-Methyl-3,8-diaza-bicyclo[3.2.1]oct-3-yl)-phenyl]-2-pyridin-4-yl-pyrazolo[1,5-a]pyrimidin-3-yl}-phenol]"
3,0.0005,"Oc1cccc(-c2c(-c3ccncc3)nn3c(-c4ccc(N5C[C@@H]6C[C@H]5CN6)cc4)ccnc23)c1 [Example 29, 3-{7-[4-((1S,4S)-2,5-Diaza-bicyclo[2.2.1]hept-2-yl)-phenyl]-2-pyridin-4-yl-pyrazolo[1,5-a]pyrimidin-3-yl}-phenol]"
4,< 0.003,"CN1C[C@@H]2C[C@H]1CN2c1ccc(-c2ccnc3c(-c4cccc(O)c4)c(-c4ccncc4)nn23)cc1 [Example 30, 3-{7-[4-((1S,4S)-5-Methyl-2,5-diaza-bicyclo[2.2.1]hept-2-yl)-phenyl]-2-pyridin-4-yl-pyrazolo[1,5-a]pyrimidin-3-yl}-phenol]"
5,0.0018,"COc1cc(-c2c(-c3ccncc3)nn3c(-c4ccc(N5C[C@@H]6C[C@H]5CN6)cc4)ccnc23)ccc1Cl [Example 31, 7-(4-((1S,4S)-2,5-Diaza-bicyclo[2.2.1]heptan-2-yl)phenyl)-3-(4-chloro-3-methoxyphenyl)-2-(pyridin-4-yl)pyrazolo[1,5-a]pyrimidine]"
6,0.0087,"COc1cc(-c2c(-c3ccncc3)nn3c(-c4ccc(N5C[C@@H]6C[C@H]5CN6)cc4)ccnc23)ccc1F [Example 32, 7-(4-((1S,4S)-2,5-Diaza-bicyclo[2.2.1]heptan-2-yl)phenyl)-3-(4-fluoro-3-methoxyphenyl)-2-(pyridin-4-yl)pyrazolo[1,5-a]pyrimidine]"
7,< 0.0003,"Oc1cc(-c2c(-c3ccncc3)nn3c(-c4ccc(N5C[C@@H]6C[C@H]5CN6)cc4)ccnc23)ccc1F [Example 33, 5-(7-(4-((1S,4S)-2,5-Diazabicyclo[2.2.1]heptan-2-yl)phenyl)-2-(pyridin-4-yl)pyrazolo[1,5-a]pyrimidin-3-yl)-2-fluorophenol]"
8,0.0023,"CN1C[C@@H]2C[C@H]1CN2c1ccc(-c2ccnc3c(-c4cccc5[nH]ncc45)c(-c4ccncc4)nn23)cn1 [Example 34, 3-(1H-Indazol-4-yl)-7-(6-((1S,4S)-5-methyl-2,5-diazabicyclo[2.2.1]heptan-2-yl)pyridin-3-yl)-2-(pyridin-4-yl)pyrazolo[1,5-a]pyrimidine]"
9,0.0015,"CN1C[C@@H]2C[C@H]1CN2c1ccc(-c2ccnc3c(-c4cccc5[nH]ncc45)c(-c4ccncc4)nn23)cc1 [Example 35, 3-(1H-indazol-4-yl)-7-(4-((1S,4S)-5-methyl-2,5-diazabicyclo[2.2.1]heptan-2-yl)phenyl)-2-(pyridin-4-yl)pyrazolo[1,5-a]pyrimidine]"
10,0.0082,"COc1cccc(-c2c(-c3ccncc3)nn3c(-c4ccc(N5C[C@@H]6C[C@H]5CN6C)cc4)ccnc23)c1 [Example 36, 3-(3-Methoxyphenyl)-7-(4-((1S,4S)-5-methyl-2,5-diazabicyclo[2.2.1]heptan-2-yl)phenyl)-2-(pyridin-4-yl)pyrazolo[1,5-a]pyrimidine]"
11,0.0005,"CCN1C[C@@H]2C[C@H]1CN2c1ccc(-c2ccnc3c(-c4ccc(F)c(O)c4)c(-c4ccncc4)nn23)cc1 [Example 38, 5-(7-(4-((1S,4S)-5-Ethyl-2,5-diazabicyclo[2.2.1]heptan-2-yl)phenyl)-2-(pyridin-4-yl)pyrazolo[1,5-a]pyrimidin-3-yl)-2-fluorophenol]"
12,0.0005,"CC(=O)N1C[C@@H]2C[C@H]1CN2c1ccc(-c2ccnc3c(-c4ccc(F)c(O)c4)c(-c4ccncc4)nn23)cc1 [Example 39, 1-((1S,4S)-5-(4-(3-(4-Fluoro-3-hydroxyphenyl)-2-(pyridin-4-yl)pyrazolo[1,5-a]pyrimidin-7-yl)phenyl)-2,5-diazabicyclo[2.2.1]heptan-2-yl)ethanone]"
13,0.0007,"Cc1ccc(-c2c(-c3ccncc3)nn3c(-c4ccc(N5C[C@@H]6C[C@H]5CN6C)nc4)ccnc23)c2cn[nH]c12 [Example 40, 3-(7-Methyl-1H-indazol-4-yl)-7-(6-((1S,4S)-5-methyl-2,5-diazabicyclo[2.2.1]heptan-2-yl)pyridin-3-yl)-2-(pyridin-4-yl)pyrazolo[1,5-a]pyrimidine]"
14,< 0.0003,"CN1C[C@@H]2C[C@H]1CN2c1ccc(-c2ccnc3c(-c4ccc(Cl)c5[nH]ncc45)c(-c4ccncc4)nn23)cn1 [Example 41, 3-(7-Chloro-1H-indazol-4-yl)-7-(6-((1S,4S)-5-methyl-2,5-diazabicyclo[2.2.1]heptan-2-yl)pyridin-3-yl)-2-(pyridin-4-yl)pyrazolo[1,5-a]pyrimidine]"
15,0.0004,"CN1C[C@@H]2C[C@H]1CN2c1ccc(-c2ccnc3c(-c4ccc(F)c5[nH]ncc45)c(-c4ccncc4)nn23)cn1 [Example 42, 3-(7-Fluoro-1H-indazol-4-yl)-7-(6-((1S,4S)-5-methyl-2,5-diazabicyclo[2.2.1]heptan-2-yl)pyridin-3-yl)-2-(pyridin-4-yl)pyrazolo[1,5-a]pyrimidine]"

# Same assay, conditions: Mean IC50 (uM), B-Raf IC50 Data for compounds of Formula A
row,SMILES,IC50 [µM]
1,"COc1cc(-c2c(-c3ccncc3)nn3c(-c4ccc(N5CC6CCC(C5)N6C)cc4)ccnc23)ccc1Cl [Example 26, 3-(4-Chloro-3-methoxy-phenyl)-7-[4-(8-methyl-3,8-diaza-bicyclo[3.2.1]oct-3-yl)-phenyl]-2-pyridin-4-yl-pyrazolo[1,5-a]pyrimidine]",0.01
2,"CN1C2CCC1CN(c1ccc(-c3ccnc4c(-c5ccc(Cl)c(O)c5)c(-c5ccncc5)nn34)cc1)C2 [Example 27, 2-Chloro-5-{7-[4-(8-methyl-3,8-diaza-bicyclo[3.2.1]oct-3-yl)-phenyl]-2-pyridin-4-yl-pyrazolo[1,5-a]pyrimidin-3-yl}-phenol]",< 0.0003
